Entries after “also recorded” stand apart in the source; their conditions may differ.
Tests used:
[1] = target: human 5-HT1B receptor (Homo sapiens, UniProt P28222); test: GTPγS agonist assay, 5-HT1B
Procedure: The mixture was shaken for 2 minutes prior to a 60 min incubation. It was then centrifuged for 10 minutes and counted for 1 minute with a Perkin Elmer TopCount reader. The resulting emission of light was recorded using a luminometer. Agonist percentage activation determinations were obtained by comparing with the Emax of the reference agonist α-methyl-5-HT.

[2] = target: T1, CCK2 (Homo sapiens, UniProt P32239); test: Cholecystokinin receptor Aequorin assay; format: cell-based; conditions: antagonism
T1 construct: expressed in transfected cells; host or cells: CHO-AEQ (CHO-K1 with mitochondrial apoaequorin)
Procedure: (§1) CHO-K1 cells coexpressing mitochondrial apoaequorin and the recombinant human receptor of interest were grown to mid-log phase in culture media without antibiotics and then detached with PBS-EDTA, centrifuged and resuspended in assay buffer (DMEM/HAM's F12 with HEPES, without phenol red+0.1% BSA, protease free) at a concentration of 1×10^6 cell/mL. Cells were incubated at room temperature for at least 4 hours with coelenterazine h. Reference agonist/antagonist was tested to evaluate the performance of the assay and to determine EC50/IC50.
(§2) 50 μL of the cell suspension was mixed with 50 μL of test or reference agonist in a 96-well plate. […] For antagonist testing, 100 μL of the reference agonist at its EC80 was injected on the mix of cells and test compound, following an incubation of 15 minutes after the first injection. The resulting emission of light was r recorded using Hamamatsu Functional Drug Screening System 6000 (FDSS 6000) luminometer. To standardize the emission of recorded light (and determine of the “100% signal”) across plates and across different experiments, some wells contained 100 μM digitonin or a saturating concentration of ATP (20 μM).

[3] = target: T2, α1A receptor (Homo sapiens, UniProt P35348); test: Competitive antagonist activity, adrenergic α1A; format: cell-based; conditions: read-out: IC50, α1A antagonism
T2 construct: expressed in transfected cells

[4] = target: T3, α1D receptor (Homo sapiens, UniProt P25100); test: Competitive antagonist activity, adrenergic α1D; format: cell-based; conditions: read-out: IC50, α1D antagonism
T3 construct: expressed in transfected cells

[5] = target: T4, D2 receptor (Homo sapiens, UniProt P14416); test: Agonist activity at the D2 receptor; format: cell-based; conditions: read-out: EC50, D2 receptor agonism
T4 construct: expressed in transfected cells
Procedure: The assay was performed analogously to the assay described in Example 4.

[6] = target: human α2C receptor (Homo sapiens, UniProt P18825); test: GTPγS antagonist assay, α2C; format: biochemical; conditions: read-out: IC50, α2C antagonism
[7] = target: T5, NK1 (Homo sapiens, UniProt P25103); test: Neurokinin receptor Aequorin assay; format: cell-based; conditions: antagonism
T5 construct: expressed in transfected cells; host or cells: CHO-AEQ (CHO-K1 with mitochondrial apoaequorin)
Procedure: as §1, §2

[8] = target: T6, OX1 (Homo sapiens, UniProt O43613); test: Orexin receptor Aequorin assay; format: cell-based; conditions: antagonism
T6 construct: expressed in transfected cells; host or cells: CHO-AEQ (CHO-K1 with mitochondrial apoaequorin)
Procedure: as §1, §2

[9] = tested on: VIP/PACAP (PAC1/VPAC1/VPAC2); test: VIP/PACAP receptor Aequorin assays; format: cell-based, human
Procedure: as §1, §2

[10] = target: T7, human 5-HT2B receptor (Homo sapiens, UniProt P41595); test: Aequorin assay, agonist activity at 5-HT2B; format: cell-based; conditions: 0.01 nM to 20,000 nM; versus Emax of α-methyl-5-HT
T7 construct: host or cells: CHO-K1 coexpressing mitochondrial apoaequorin
Procedure: Percentage activation values were determined for 2-CF3 dihydroergotamine at the 5-HT2B receptor.

T7 sequence (P41595 whole entry): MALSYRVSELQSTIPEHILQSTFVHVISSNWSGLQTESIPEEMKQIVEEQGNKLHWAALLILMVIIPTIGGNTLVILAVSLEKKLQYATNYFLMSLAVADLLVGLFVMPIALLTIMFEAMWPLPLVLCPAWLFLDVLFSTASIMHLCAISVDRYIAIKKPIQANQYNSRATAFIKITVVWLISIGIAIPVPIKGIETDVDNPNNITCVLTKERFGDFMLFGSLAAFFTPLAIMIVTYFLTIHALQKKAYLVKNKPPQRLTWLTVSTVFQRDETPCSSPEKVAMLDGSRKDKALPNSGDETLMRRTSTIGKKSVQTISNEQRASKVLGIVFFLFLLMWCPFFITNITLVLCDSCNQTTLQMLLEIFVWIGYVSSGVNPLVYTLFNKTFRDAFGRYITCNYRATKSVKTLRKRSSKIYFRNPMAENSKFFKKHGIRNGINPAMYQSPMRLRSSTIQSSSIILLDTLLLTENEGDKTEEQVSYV
T5 sequence (P25103 whole entry): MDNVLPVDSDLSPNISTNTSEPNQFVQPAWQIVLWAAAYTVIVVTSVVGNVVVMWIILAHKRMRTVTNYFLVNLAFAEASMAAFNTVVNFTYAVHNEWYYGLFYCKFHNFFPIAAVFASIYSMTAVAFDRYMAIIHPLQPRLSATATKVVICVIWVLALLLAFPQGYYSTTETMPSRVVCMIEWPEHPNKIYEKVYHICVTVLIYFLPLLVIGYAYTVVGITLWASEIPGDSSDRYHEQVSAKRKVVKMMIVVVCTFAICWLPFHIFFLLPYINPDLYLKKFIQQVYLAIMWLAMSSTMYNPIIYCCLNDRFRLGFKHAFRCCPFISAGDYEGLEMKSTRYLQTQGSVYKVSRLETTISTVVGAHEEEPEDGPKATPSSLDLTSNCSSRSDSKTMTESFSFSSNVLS
T2 sequence (P35348 whole entry): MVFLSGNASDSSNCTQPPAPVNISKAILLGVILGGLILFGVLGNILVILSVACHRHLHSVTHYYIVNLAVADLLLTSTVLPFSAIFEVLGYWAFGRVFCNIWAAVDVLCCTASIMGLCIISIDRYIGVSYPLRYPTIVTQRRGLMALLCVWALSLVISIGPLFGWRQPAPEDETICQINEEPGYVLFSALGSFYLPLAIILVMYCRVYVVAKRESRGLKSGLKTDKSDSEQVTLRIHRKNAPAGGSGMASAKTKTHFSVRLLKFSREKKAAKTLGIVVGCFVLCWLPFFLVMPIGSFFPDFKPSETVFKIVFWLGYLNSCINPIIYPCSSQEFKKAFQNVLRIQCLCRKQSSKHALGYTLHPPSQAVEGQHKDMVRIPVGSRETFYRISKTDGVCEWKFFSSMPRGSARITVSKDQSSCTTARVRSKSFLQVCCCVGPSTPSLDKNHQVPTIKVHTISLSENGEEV
Chain of human α2C receptor (P18825 whole entry): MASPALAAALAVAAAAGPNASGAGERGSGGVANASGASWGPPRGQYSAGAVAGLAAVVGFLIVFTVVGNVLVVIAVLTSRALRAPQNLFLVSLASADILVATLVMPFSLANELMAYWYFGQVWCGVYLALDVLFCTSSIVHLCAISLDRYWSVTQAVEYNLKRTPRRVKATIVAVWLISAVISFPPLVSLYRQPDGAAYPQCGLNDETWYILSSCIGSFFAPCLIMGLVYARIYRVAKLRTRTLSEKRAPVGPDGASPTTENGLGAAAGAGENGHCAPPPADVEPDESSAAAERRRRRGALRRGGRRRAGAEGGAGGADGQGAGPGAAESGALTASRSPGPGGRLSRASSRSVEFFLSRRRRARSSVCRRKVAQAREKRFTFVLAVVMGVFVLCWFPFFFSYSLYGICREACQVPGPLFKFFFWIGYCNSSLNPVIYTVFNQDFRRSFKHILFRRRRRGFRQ
T4 sequence (P14416 whole entry): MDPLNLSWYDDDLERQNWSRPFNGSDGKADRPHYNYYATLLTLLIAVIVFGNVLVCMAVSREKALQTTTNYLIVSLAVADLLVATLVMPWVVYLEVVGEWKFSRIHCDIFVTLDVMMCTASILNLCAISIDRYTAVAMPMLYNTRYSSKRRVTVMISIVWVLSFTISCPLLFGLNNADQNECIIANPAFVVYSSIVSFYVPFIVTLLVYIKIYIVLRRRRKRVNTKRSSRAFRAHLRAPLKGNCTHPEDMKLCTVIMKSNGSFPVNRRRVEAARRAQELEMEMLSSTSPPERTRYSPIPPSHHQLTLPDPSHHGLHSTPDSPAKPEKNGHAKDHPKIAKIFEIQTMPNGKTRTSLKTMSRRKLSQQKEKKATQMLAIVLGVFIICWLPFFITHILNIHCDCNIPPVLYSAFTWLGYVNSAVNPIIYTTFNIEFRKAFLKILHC
T3 sequence (P25100 whole entry): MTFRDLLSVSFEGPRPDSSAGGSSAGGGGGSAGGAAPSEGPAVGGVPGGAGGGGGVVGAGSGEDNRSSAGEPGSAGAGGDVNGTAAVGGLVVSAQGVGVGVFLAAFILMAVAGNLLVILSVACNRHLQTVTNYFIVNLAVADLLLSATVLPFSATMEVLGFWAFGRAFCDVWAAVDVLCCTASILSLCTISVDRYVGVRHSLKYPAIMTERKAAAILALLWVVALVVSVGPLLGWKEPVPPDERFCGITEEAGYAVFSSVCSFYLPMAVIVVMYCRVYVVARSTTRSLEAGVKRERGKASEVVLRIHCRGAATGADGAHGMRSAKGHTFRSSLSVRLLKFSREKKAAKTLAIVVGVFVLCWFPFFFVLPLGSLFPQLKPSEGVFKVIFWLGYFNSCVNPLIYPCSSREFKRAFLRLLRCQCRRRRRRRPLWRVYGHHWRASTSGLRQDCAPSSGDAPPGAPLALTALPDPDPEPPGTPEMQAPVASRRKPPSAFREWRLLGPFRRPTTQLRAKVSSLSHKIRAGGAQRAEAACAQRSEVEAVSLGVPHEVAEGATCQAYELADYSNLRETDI
T1 sequence (P32239 whole entry): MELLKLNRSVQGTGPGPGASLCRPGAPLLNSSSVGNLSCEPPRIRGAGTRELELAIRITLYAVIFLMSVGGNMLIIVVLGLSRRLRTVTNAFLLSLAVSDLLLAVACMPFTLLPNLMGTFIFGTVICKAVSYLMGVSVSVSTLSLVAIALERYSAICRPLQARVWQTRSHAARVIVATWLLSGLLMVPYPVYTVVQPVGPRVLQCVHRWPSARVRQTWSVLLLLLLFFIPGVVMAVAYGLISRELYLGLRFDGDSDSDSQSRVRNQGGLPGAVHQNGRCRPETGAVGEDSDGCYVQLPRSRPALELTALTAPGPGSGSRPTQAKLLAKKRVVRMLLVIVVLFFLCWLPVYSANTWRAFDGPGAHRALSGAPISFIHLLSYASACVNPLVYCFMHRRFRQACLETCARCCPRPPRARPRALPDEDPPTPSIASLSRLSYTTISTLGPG
T6 sequence (O43613 whole entry): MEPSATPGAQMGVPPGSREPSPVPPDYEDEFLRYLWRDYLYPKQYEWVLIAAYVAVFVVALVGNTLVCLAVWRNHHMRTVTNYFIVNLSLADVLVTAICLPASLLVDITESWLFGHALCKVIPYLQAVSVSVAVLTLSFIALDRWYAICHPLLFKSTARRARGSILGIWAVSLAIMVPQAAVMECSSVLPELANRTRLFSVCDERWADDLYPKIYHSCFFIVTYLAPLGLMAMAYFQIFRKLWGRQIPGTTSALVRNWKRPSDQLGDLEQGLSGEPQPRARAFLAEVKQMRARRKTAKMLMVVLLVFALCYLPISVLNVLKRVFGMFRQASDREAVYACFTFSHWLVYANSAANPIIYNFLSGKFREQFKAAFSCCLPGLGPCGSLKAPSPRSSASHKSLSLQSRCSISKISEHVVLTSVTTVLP
Chain of human 5-HT1B receptor (P28222 whole entry): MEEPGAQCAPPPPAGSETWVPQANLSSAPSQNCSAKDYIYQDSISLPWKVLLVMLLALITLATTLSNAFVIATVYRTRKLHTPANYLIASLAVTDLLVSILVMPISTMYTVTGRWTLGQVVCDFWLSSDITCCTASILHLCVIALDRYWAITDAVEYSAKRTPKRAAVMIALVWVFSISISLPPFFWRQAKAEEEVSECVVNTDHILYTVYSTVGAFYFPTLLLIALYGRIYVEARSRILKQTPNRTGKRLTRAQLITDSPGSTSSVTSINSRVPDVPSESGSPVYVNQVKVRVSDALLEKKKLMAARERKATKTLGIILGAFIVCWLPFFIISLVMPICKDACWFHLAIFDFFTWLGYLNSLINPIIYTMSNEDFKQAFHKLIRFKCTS

Compound `CN1C[C@H](C(=O)N[C@]2(C)O[C@@]3(O)[C@@H]4CCCN4C(=O)[C@H](Cc4ccccc4)N3C2=O)CC2c3cccc4[nH]c(C(F)(F)F)c(c34)CC21` (stereo partly shown) [2-CF3-dihydroergotamine] has an EC50 [1] of 406 nM, an IC50 [2] greater than 10 µM and an IC50 [3] of 207 nM. For the same compound, the IC50 [4] was 40.2 nM, the EC50 [5] was 218 nM and the IC50 [6] was 2780 nM. The IC50 [7] was greater than 1000 nM, the IC50 [8] was greater than 10 µM and the “Activity (Agonism: EC50; Antagonism: IC50)” value [9] was “Inactive”. The “agonist activity at the 5-HT2B receptor” value [10] was “no agonist activity; also recorded: little agonist activity”.

Reference: patent US20150133456A1, “FLUOROERGOLINE DERIVATIVES AND USES THEREOF” (MAP PHARMACEUTICALS, INC., priority 2012, published 2015)
